Reference: publication PMC5218480 (PLoS ONE, 2017)

Tested on: MV-4-11 cells
Assay: Gene expression microarray analysis (Affymetrix PrimeView) and GSEA
Assay type: cell-based, human
Design: RFU PODN (11730768_x_at) / Fold change /veh PODN (11730768_x_at) / RFU LINC00158 (11744669_a_at) / Fold change /veh LINC00158 (11744669_a_at) / RFU DUSP10 (11751237_a_at) / Fold change /veh DUSP10 (11751237_a_at) / RFU ID3 (11757404_x_at) / Fold change /veh ID3 (11757404_x_at) / RFU PLEKHG5 (11737974_s_at) / Fold change /veh PLEKHG5 (11737974_s_at) / RFU LRRC4B (11730491_at) / Fold change /veh LRRC4B (11730491_at) / RFU GIMAP4 (11747438_a_at) / Fold change /veh GIMAP4 (11747438_a_at) / RFU KRT8 (11758183_x_at) / Fold change /veh KRT8 (11758183_x_at) / RFU CNN1 (11734310_a_at) / Fold change /veh CNN1 (11734310_a_at) / RFU VPS37D (11726825_at) / Fold change /veh VPS37D (11726825_at) / RFU C10orf10 (11716522_x_at) / Fold change /veh C10orf10 (11716522_x_at) / RFU KIR2DL2 /// KIR2DL4 /// KIR2DL5A /// KIR2DL5B /// KIR2DS1 /// KIR2DS2 /// KIR2DS3 /// KIR2DS4 /// KIR3DL3 /// KIR3DL3 /// KIR3DS1 (11738374_at) / Fold change /veh KIR2DL2 /// KIR2DL4 /// KIR2DL5A /// KIR2DL5B /// KIR2DS1 /// KIR2DS2 /// KIR2DS3 /// KIR2DS4 /// KIR3DL3 /// KIR3DL3 /// KIR3DS1 (11738374_at) / RFU C1QL1 (11718748_at) / Fold change /veh C1QL1 (11718748_at) / RFU TMPRSS4 (11747572_a_at) / Fold change /veh TMPRSS4 (11747572_a_at) / RFU HAMP (11756126_x_at) / Fold change /veh HAMP (11756126_x_at) / RFU RNFT2 (11725882_a_at) / Fold change /veh RNFT2 (11725882_a_at) / RFU NR4A2 (11747474_a_at) / Fold change /veh NR4A2 (11747474_a_at) / RFU ABCC12 (11746883_a_at) / Fold change /veh ABCC12 (11746883_a_at) / RFU TMEM136 (11760407_x_at) / Fold change /veh TMEM136 (11760407_x_at) / RFU CLDN22 /// WWC2 (11732394_at) / Fold change /veh CLDN22 /// WWC2 (11732394_at) / RFU HLA-DPB1 (11760878_x_at) / Fold change /veh HLA-DPB1 (11760878_x_at) / RFU SPINT1 (11716480_a_at) / Fold change /veh SPINT1 (11716480_a_at) / RFU GAP43 (11754022_s_at) / Fold change /veh GAP43 (11754022_s_at) / RFU A4GNT (11735810_at) / Fold change /veh A4GNT (11735810_at) / RFU PRB3 (11715151_x_at) / Fold change /veh PRB3 (11715151_x_at) / RFU TUBB4B (11761932_at) / Fold change /veh TUBB4B (11761932_at) / RFU CAPN14 (11732068_a_at) / Fold change /veh CAPN14 (11732068_a_at) / RFU TMCC2 (11721928_a_at) / Fold change /veh TMCC2 (11721928_a_at) / RFU IRGQ (11745062_a_at) / Fold change /veh IRGQ (11745062_a_at) / RFU FAM174B (11720279_a_at) / Fold change /veh FAM174B (11720279_a_at) / RFU TMPRSS4 (11748680_a_at) / Fold change /veh TMPRSS4 (11748680_a_at) / RFU FAM212B (11763350_a_at) / Fold change /veh FAM212B (11763350_a_at) / RFU PLEKHG5 (11743358_a_at) / Fold change /veh PLEKHG5 (11743358_a_at) / RFU ZSCAN30 (11745921_a_at) / Fold change /veh ZSCAN30 (11745921_a_at) / RFU CMKLR1 (11741424_a_at) / Fold change /veh CMKLR1 (11741424_a_at) / RFU LOC101060620 /// MAPK8IP1 (11723275_at) / Fold change /veh LOC101060620 /// MAPK8IP1 (11723275_at) / RFU SPTSSB (11747773_x_at) / Fold change /veh SPTSSB (11747773_x_at) / RFU PRSS12 (11739890_at) / Fold change /veh PRSS12 (11739890_at) / RFU BIN1 (11741810_x_at) / Fold change /veh BIN1 (11741810_x_at) / RFU WNT11 (11732464_a_at) / Fold change /veh WNT11 (11732464_a_at) / RFU C10orf10 (11716521_a_at) / Fold change /veh C10orf10 (11716521_a_at) / RFU C5orf56 (11738089_at) / Fold change /veh C5orf56 (11738089_at) / RFU CYB561 (11721691_x_at) / Fold change /veh CYB561 (11721691_x_at) / RFU ANKRD19P (11752326_a_at) / Fold change /veh ANKRD19P (11752326_a_at) / RFU OR2T12 /// OR2T33 /// OR2T8 (11738714_s_at) / Fold change /veh OR2T12 /// OR2T33 /// OR2T8 (11738714_s_at) / RFU VCAN (11748164_a_at) / Fold change /veh VCAN (11748164_a_at) / RFU JSRP1 (11732532_at) / Fold change /veh JSRP1 (11732532_at) / RFU KRTAP10-11 (11738290_x_at) / Fold change /veh KRTAP10-11 (11738290_x_at) / RFU MYO3A (11730013_a_at) / Fold change /veh MYO3A (11730013_a_at) / RFU EBF3 (11725865_a_at) / Fold change /veh EBF3 (11725865_a_at) / RFU CAMK2N1 (11719241_x_at) / Fold change /veh CAMK2N1 (11719241_x_at) / RFU C5orf56 (11738088_a_at) / Fold change /veh C5orf56 (11738088_a_at) / RFU OLFML3 (11715873_a_at) / Fold change /veh OLFML3 (11715873_a_at) / RFU LOC100653217 /// NTM (11731650_a_at) / Fold change /veh LOC100653217 /// NTM (11731650_a_at) / RFU MAPK11 (11762145_a_at) / Fold change /veh MAPK11 (11762145_a_at) / RFU FIZ1 (11724087_x_at) / Fold change /veh FIZ1 (11724087_x_at) / RFU OASL (11726364_x_at) / Fold change /veh OASL (11726364_x_at) / RFU SOX15 (11748057_x_at) / Fold change /veh SOX15 (11748057_x_at) / RFU CD79A (11719716_a_at) / Fold change /veh CD79A (11719716_a_at) / RFU HIST1H1D (11736915_at) / Fold change /veh HIST1H1D (11736915_at) / RFU CASKIN2 (11723855_a_at) / Fold change /veh CASKIN2 (11723855_a_at) / RFU LOC730098 (11760151_x_at) / Fold change /veh LOC730098 (11760151_x_at) / RFU OR4N2 (11742367_at) / Fold change /veh OR4N2 (11742367_at) / RFU PRRT2 (11749266_a_at) / Fold change /veh PRRT2 (11749266_a_at) / RFU SNX32 (11753110_a_at) / Fold change /veh SNX32 (11753110_a_at) / RFU CDHR5 (11726645_a_at) / Fold change /veh CDHR5 (11726645_a_at) / RFU RCAN1 (11760418_a_at) / Fold change /veh RCAN1 (11760418_a_at) / RFU FAM167A (11723789_a_at) / Fold change /veh FAM167A (11723789_a_at) / RFU FAM26E (11764081_at) / Fold change /veh FAM26E (11764081_at) / RFU ISYNA1 (11749810_s_at) / Fold change /veh ISYNA1 (11749810_s_at) / RFU ACY1 (11761880_at) / Fold change /veh ACY1 (11761880_at) / RFU 11764098_at / Fold change /veh 11764098_at / RFU SAMD14 (11745864_x_at) / Fold change /veh SAMD14 (11745864_x_at) / RFU NPB (11741838_a_at) / Fold change /veh NPB (11741838_a_at) / RFU TMPRSS6 (11731388_a_at) / Fold change /veh TMPRSS6 (11731388_a_at) / RFU KRTAP10-2 (11738614_at) / Fold change /veh KRTAP10-2 (11738614_at) / RFU ARHGAP8 /// PRR5-ARHGAP8 (11727945_x_at) / Fold change /veh ARHGAP8 /// PRR5-ARHGAP8 (11727945_x_at) / RFU KRTAP5-7 /// NADSYN1 (11734609_at) / Fold change /veh KRTAP5-7 /// NADSYN1 (11734609_at) / RFU RASL12 (11751679_a_at) / Fold change /veh RASL12 (11751679_a_at) / RFU CDKN2B (11736163_a_at) / Fold change /veh CDKN2B (11736163_a_at) / RFU PRF1 (11729649_at) / Fold change /veh PRF1 (11729649_at) / RFU, ZNF638 /// ZNF638-IT1 / Fold change vs veh, ZNF638 /// ZNF638-IT1 / RFU, PANK3 / Fold change vs veh, PANK3 / RFU, SH3YL1 / Fold change vs veh, SH3YL1 / RFU, ZEB2 / Fold change vs veh, ZEB2 / RFU, NRIP1 / Fold change vs veh, NRIP1 / RFU, PTTG1IP / Fold change vs veh, PTTG1IP / RFU, CAPN2 / Fold change vs veh, CAPN2 / RFU, MED14 / Fold change vs veh, MED14 / RFU, SNORA58 / Fold change vs veh, SNORA58 / RFU, C1orf63 / Fold change vs veh, C1orf63 / RFU, LRRFIP1 / Fold change vs veh, LRRFIP1 / RFU, NDUFAF7 / Fold change vs veh, NDUFAF7 / RFU, SLC12A2 / Fold change vs veh, SLC12A2 / RFU, IBTK / Fold change vs veh, IBTK / RFU, ESF1 / Fold change vs veh, ESF1 / Fold change vs veh, TMEM50B / RFU, TAOK1 / Fold change vs veh, TAOK1 / RFU, ACBD3 / Fold change vs veh, ACBD3 / RFU, TMA16 / Fold change vs veh, TMA16 / RFU, RWDD3 / Fold change vs veh, RWDD3 / RFU, BCAT1 / Fold change vs veh, BCAT1 / RFU, EDEM3 / Fold change vs veh, EDEM3 / RFU, TMEM33 / Fold change vs veh, TMEM33 / RFU, WDR75 / Fold change vs veh, WDR75 / RFU, AHCTF1 / Fold change vs veh, AHCTF1 / RFU, TFRC / Fold change vs veh, TFRC / RFU, ZDHHC17 / Fold change vs veh, ZDHHC17 / RFU, NOM1 / Fold change vs veh, NOM1 / RFU, ARL8B / Fold change vs veh, ARL8B / RFU, ZBTB11 / Fold change vs veh, ZBTB11 / RFU, TAMM41 / Fold change vs veh, TAMM41 / RFU, KIAA1704 /// LOC100996395 / Fold change vs veh, KIAA1704 /// LOC100996395 / RFU, ING1 / Fold change vs veh, ING1 / RFU, TRMT61B / Fold change vs veh, TRMT61B / RFU, FUBP3 / Fold change vs veh, FUBP3 / RFU, TP53 / Fold change vs veh, TP53 / RFU, TNKS2 / Fold change vs veh, TNKS2 / RFU, ZFP14 / Fold change vs veh, ZFP14 / RFU, ACTR2 / Fold change vs veh, ACTR2 / RFU, PPP3R1 / Fold change vs veh, PPP3R1 / RFU, PIK3R1 / Fold change vs veh, PIK3R1 / RFU, HNRNPA1 / Fold change vs veh, HNRNPA1 / RFU, RNF170 / Fold change vs veh, RNF170 / RFU, ZNF28 / Fold change vs veh, ZNF28 / RFU, RNGTT / Fold change vs veh, RNGTT / RFU, OGT / Fold change vs veh, OGT / RFU, BRD1 / Fold change vs veh, BRD1 / RFU, MARS / Fold change vs veh, MARS / RFU, ZNF655 / Fold change vs veh, ZNF655 / RFU, FAHD1 / Fold change vs veh, FAHD1 / RFU, BDP1 / Fold change vs veh, BDP1 / RFU, LRRCC1 / Fold change vs veh, LRRCC1 / RFU, ARID1A / Fold change vs veh, ARID1A / RFU, ZNF146 / Fold change vs veh, ZNF146 / RFU, ZNF330 / Fold change vs veh, ZNF330 / RFU, GPN3 / Fold change vs veh, GPN3 / RFU, C9orf123 / Fold change vs veh, C9orf123 / RFU, N4BP2L2 / Fold change vs veh, N4BP2L2 / RFU, ARFIP1 / Fold change vs veh, ARFIP1 / RFU, FAM179B / Fold change vs veh, FAM179B / RFU, BCL10 / Fold change vs veh, BCL10 / RFU, UHRF1BP1L / Fold change vs veh, UHRF1BP1L / RFU, BET1 / Fold change vs veh, BET1 / RFU, CNOT2 / Fold change vs veh, CNOT2 / RFU, ZNF268 / Fold change vs veh, ZNF268 / Fold change vs veh, ZNF507 / RFU, DGCR2 / Fold change vs veh, DGCR2 / RFU, WDSUB1 / Fold change vs veh, WDSUB1 / Fold change vs veh, HSP90B1 /// MIR3652 / RFU, ADSS / Fold change vs veh, ADSS / RFU, GK / Fold change vs veh, GK / RFU, ZNF148 / Fold change vs veh, ZNF148 / RFU, TAF9 / Fold change vs veh, TAF9 / RFU, SLC1A5 / Fold change vs veh, SLC1A5 / RFU, SLMO2 / Fold change vs veh, SLMO2 / RFU, ABCC4 / Fold change vs veh, ABCC4 / RFU, LOC101060439 /// RAP1B / Fold change vs veh, LOC101060439 /// RAP1B / RFU, RFX7 / Fold change vs veh, RFX7 / RFU, GTPBP10 / Fold change vs veh, GTPBP10 / RFU, CNEP1R1 / Fold change vs veh, CNEP1R1 / RFU, BIVM-ERCC5 /// ERCC5 / Fold change vs veh, BIVM-ERCC5 /// ERCC5 / RFU, ILF3 / Fold change vs veh, ILF3 / RFU 11762660_at / Fold change /veh 11762660_at / RFU VCAN (11757783_s_at) / Fold change /veh VCAN (11757783_s_at) / RFU DDX43 (11728927_at) / Fold change /veh DDX43 (11728927_at) / RFU KRT8 (11758188_x_at) / Fold change /veh KRT8 (11758188_x_at) / RFU NKD1 (11759106_at) / Fold change /veh NKD1 (11759106_at) / RFU SRD5A1 (11742802_a_at) / Fold change /veh SRD5A1 (11742802_a_at) / RFU TPSAB1 /// TPSB2 (11721975_s_at) / Fold change /veh TPSAB1 /// TPSB2 (11721975_s_at) / RFU GSTM3 (11746129_a_at) / Fold change /veh GSTM3 (11746129_a_at) / RFU IL23R (11737362_x_at) / Fold change /veh IL23R (11737362_x_at) / RFU TMEM51 (11727254_a_at) / Fold change /veh TMEM51 (11727254_a_at) / RFU PIWIL2 (11732686_x_at) / Fold change /veh PIWIL2 (11732686_x_at) / RFU ORM1 (11744905_x_at) / Fold change /veh ORM1 (11744905_x_at) / RFU CCDC152 (11743942_at) / Fold change /veh CCDC152 (11743942_at) / RFU ECM1 (11717891_a_at) / Fold change /veh ECM1 (11717891_a_at) / RFU IL23R (11748794_a_at) / Fold change /veh IL23R (11748794_a_at) / RFU TNFAIP8L3 (11732012_x_at) / Fold change /veh TNFAIP8L3 (11732012_x_at) / RFU MBOAT4 (11741988_at) / Fold change /veh MBOAT4 (11741988_at) / RFU 11764193_at / Fold change /veh 11764193_at / RFU TMEM53 (11763286_at) / Fold change /veh TMEM53 (11763286_at) / RFU MAGEB2 (11727129_at) / Fold change /veh MAGEB2 (11727129_at) / RFU TMEM200A (11744735_a_at) / Fold change /veh TMEM200A (11744735_a_at) / RFU CCDC152 (11751479_a_at) / Fold change /veh CCDC152 (11751479_a_at) / RFU FAM211A (11726209_a_at) / Fold change /veh FAM211A (11726209_a_at) / RFU RGS16 (11746705_a_at) / Fold change /veh RGS16 (11746705_a_at) / RFU VCAN (11755009_s_at) / Fold change /veh VCAN (11755009_s_at) / RFU RHOB (11743442_s_at) / Fold change /veh RHOB (11743442_s_at) / RFU RGS16 (11720943_a_at) / Fold change /veh RGS16 (11720943_a_at) / RFU RGS16 (11720944_at) / Fold change /veh RGS16 (11720944_at) / RFU, VPS4B / Fold change vs veh, VPS4B / RFU, CREB1 / Fold change vs veh, CREB1 / RFU, DNAJC13 / Fold change vs veh, DNAJC13 / RFU, GNAQ / Fold change vs veh, GNAQ / RFU, CDK5R1 / Fold change vs veh, CDK5R1 / RFU, ZRANB3 / Fold change vs veh, ZRANB3 / RFU, CUL4A / Fold change vs veh, CUL4A / RFU, CCNY / Fold change vs veh, CCNY / RFU, UFL1 / Fold change vs veh, UFL1 / RFU, COG3 / Fold change vs veh, COG3 / RFU, DIAPH2 / Fold change vs veh, DIAPH2 / RFU, SKA2 / Fold change vs veh, SKA2 / RFU, AFF3 / Fold change vs veh, AFF3 / RFU, LMF1 / Fold change vs veh, LMF1 / RFU, IPO11 / Fold change vs veh, IPO11 / RFU, DFFB / Fold change vs veh, DFFB / RFU, FOXP1 / Fold change vs veh, FOXP1 / RFU, CARD8 / Fold change vs veh, CARD8 / RFU, STRN3 / Fold change vs veh, STRN3 / RFU, ADK / Fold change vs veh, ADK / RFU, RASSF2 / Fold change vs veh, RASSF2 / RFU, WIPF1 / Fold change vs veh, WIPF1 / RFU, LARP1B / Fold change vs veh, LARP1B / RFU, RASA1 / Fold change vs veh, RASA1 / RFU, RB1 / Fold change vs veh, RB1 / RFU, PPFIA1 / Fold change vs veh, PPFIA1 / RFU, MAT2A / Fold change vs veh, MAT2A / RFU, CCT5 / Fold change vs veh, CCT5 / RFU, WDR92 / Fold change vs veh, WDR92 / RFU, CUX1 / Fold change vs veh, CUX1 / RFU, TTC7A / Fold change vs veh, TTC7A / RFU, TMEM135 / Fold change vs veh, TMEM135 / RFU, DEPTOR / Fold change vs veh, DEPTOR / RFU, CPM / Fold change vs veh, CPM / RFU, DNAJB6 / Fold change vs veh, DNAJB6 / RFU, CACNA2D3 / Fold change vs veh, CACNA2D3 / RFU, DTX4 / Fold change vs veh, DTX4 / RFU, TFCP2 / Fold change vs veh, TFCP2 / RFU, GMCL1 /// GMCL1P1 / Fold change vs veh, GMCL1 /// GMCL1P1 / RFU, AEBP2 / Fold change vs veh, AEBP2 / RFU, SNHG1 /// SNORD22 /// SNORD25 /// SNORD26 /// SNORD27 /// SNORD28 /// SNORD29 /// SNORD31 / Fold change vs veh, SNHG1 /// SNORD22 /// SNORD25 /// SNORD26 /// SNORD27 /// SNORD28 /// SNORD29 /// SNORD31 / Fold change (Aza/veh), C12orf56 (ProbeSet 11735607_a_at) / Fold change (ACY-1035/veh), C12orf56 (ProbeSet 11735607_a_at) / Fold change (Aza/veh), FGFR1OP (ProbeSet 11751329_s_at) / Fold change (ACY-1035/veh), FGFR1OP (ProbeSet 11751329_s_at) / Fold change (Aza/veh), VPS36 (ProbeSet 11739960_a_at) / Fold change (ACY-1035/veh), VPS36 (ProbeSet 11739960_a_at) / RFU SYPL1 (11715823_x_at) / Fold change /veh SYPL1 (11715823_x_at) / RFU IGFBP7 (11715501_s_at) / Fold change /veh IGFBP7 (11715501_s_at) / RFU REEP3 (11722064_at) / Fold change /veh REEP3 (11722064_at) / RFU IGLL1 (11728026_x_at) / Fold change /veh IGLL1 (11728026_x_at): dose or concentration left out as unconfirmed
Conditions: ProbeSet 11754362_a_at; LIST D

Nc1ncn([C@@H]2O[C@H](CO)[C@@H](O)[C@H]2O)c(=O)n1 [azacitidine]
Fold change vs veh, TTC7A: 0.72
